# Patent US10980889B1 (Revolution Medicines, Inc., priority 2018, dated 2021)
# Where two headings read alike, the source gives them in different places.
# Experiments:
# Conditions in all cases: Homo sapiens, 4 h, two to four hours at 37° C.
# P-4E-BP1 (T37/46) = experiment: Cell based AlphaLISA assay, inhibition of P-4E-BP1 (T37/46) in MDA-MB-468 cells (mTORC1 substrate)
# Summary of the method: (§1)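 In MDA-MB-468 cells, phosphorylation of 4EBP1 (Thr37/46), P70S6K (Thr389) and AKT (Ser473) was measured after incubation with inhibitor by AlphaLISA SureFire Ultra on cell lysates, in duplicate. IC50 values came from control-normalized concentration-response regression.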
# P-P70S6K (T389) = experiment: Cell based AlphaLISA assay, inhibition of P-P70S6K (T389) in MDA-MB-468 cells (mTORC1 substrate)
# Summary of the method: as §1
# P-Akt (S473) = experiment: Cell based AlphaLISA assay, inhibition of P-Akt (S473) in MDA-MB-468 cells (mTORC2 substrate)
# Summary of the method: as §1
# [1] = AlphaLisa, read-out: pIC50 for Inhibition of mTORC1 and mTORC2 Substrate Phosphorylation P-4E-BP1-(T37/46) (converted)
# [2] = AlphaLisa, read-out: pIC50 for Inhibition of mTORC1 and mTORC2 Substrate Phosphorylation p-P70S6K-(T389) (converted)
# [3] = AlphaLisa, read-out: pIC50 for Inhibition of mTORC1 and mTORC2 Substrate Phosphorylation p-AKT1/2/3-(S473) (converted)
# [4] = AlphaLisa SureFire Ultra, read-out: IC50 for Inhibition of mTORC1 and mTORC2 Substrate Phosphorylation (nM) p-4E-BP1-(T37/46)
# [5] = AlphaLisa SureFire Ultra, read-out: IC50 for Inhibition of mTORC1 and mTORC2 Substrate Phosphorylation (nM) p-P7056K-(T389)
# [6] = AlphaLisa SureFire Ultra, read-out: IC50 for Inhibition of mTORC1 and mTORC2 Substrate Phosphorylation (nM) p-AKT1/2/3-(5473)
IC50 (P-4E-BP1 (T37/46); [4]) [nM],IC50 (P-P70S6K (T389); [5]) [nM],IC50 (P-Akt (S473); [6]) [nM],SMILES,IC50 (P-4E-BP1 (T37/46); [1]) [nM],IC50 (P-P70S6K (T389); [2]) [nM],IC50 (P-Akt (S473); [3]) [nM]
,,,CO[C@H]1C[C@@H]2CC[C@@H](C)[C@@](O)(O2)C(=O)C(=O)N2CCCC[C@H]2C(=O)O[C@H]([C@H](C)C[C@@H]2CC[C@@H](OC(=O)NCc3cnc(N4CCN(c5ncc(C(=O)N6CCN(c7ncc(C(=O)N8CCc9cc(Cn%10nc(-c%11cnc%12[nH]ccc%12c%11)c%11c(N)ncnc%11%10)ccc9C8)cn7)CC6)cn5)CC4)nc3)[C@H](OC)C2)CC(=O)[C@H](C)/C=C(\C)[C@@H](O)[C@@H](OC)C(=O)[C@H](C)C[C@H](C)/C=C/C=C/C=C/1C [Example 140],31.6 to 1000,10 to 1000,> 1000
,,,CO[C@H]1C[C@@H]2CC[C@@H](C)[C@@](O)(O2)C(=O)C(=O)N2CCCC[C@H]2C(=O)O[C@H]([C@H](C)C[C@@H]2CC[C@@H](OC(=O)N3CCc4nc(N5CCN(c6ncc(C(=O)N7CCN(c8ncc(C(=O)N9CCc%10cc(Cn%11nc(-c%12cnc%13[nH]ccc%13c%12)c%12c(N)ncnc%12%11)ccc%10C9)cn8)CC7)cn6)CC5)ncc4C3)[C@H](OC)C2)CC(=O)[C@H](C)/C=C(\C)[C@@H](O)[C@@H](OC)C(=O)[C@H](C)C[C@H](C)/C=C/C=C/C=C/1C [Example 142],> 1000,1 to 10,> 1000
,,,CO[C@H]1C[C@@H]2CC[C@@H](C)[C@@](O)(O2)C(=O)C(=O)N2CCCC[C@H]2C(=O)O[C@H]([C@H](C)C[C@@H]2CC[C@@H](OC(=O)NCCOCCOCCN3CCN(CCOCCOCCOCCOCCC(=O)N4CCc5cc(Cn6nc(-c7ccc8oc(N)nc8c7)c7c(N)ncnc76)ccc5C4)CC3)[C@H](OC)C2)C[C@@H](O)[C@H](C)/C=C(\C)[C@@H](O)[C@@H](OC)C(=O)[C@H](C)C[C@H](C)/C=C/C=C/C=C/1C [Example 143],3.16 to 31.6,< 1,> 1000
,,,CO[C@H]1C[C@@H]2CC[C@@H](C)[C@@](O)(O2)C(=O)C(=O)N2CCCC[C@H]2C(=O)O[C@H]([C@H](C)C[C@@H]2CC[C@@H](OC(=O)NCCOCCOCCN3C[C@@H]4C[C@H]3CN4CCOCCOCCOCCOCCC(=O)N3CCc4cc(Cn5nc(-c6ccc7oc(N)nc7c6)c6c(N)ncnc65)ccc4C3)[C@H](OC)C2)C[C@@H](O)[C@H](C)/C=C(\C)[C@@H](O)[C@@H](OC)C(=O)[C@H](C)C[C@H](C)/C=C/C=C/C=C/1C [Example 144],< 3.16,< 1,3.16 to 31.6
16,1.4,3.7,"CC(C)n1nc(-c2ccc3oc(N)nc3c2)c2c(N)ncnc21 [MLN-128, reference compound]",,,
> 1000,0.2,> 1000,"CO[C@H]1C[C@@H]2CC[C@@H](C)[C@@](O)(O2)C(=O)C(=O)N2CCCC[C@H]2C(=O)O[C@H]([C@H](C)C[C@@H]2CC[C@@H](O)[C@H](OC)C2)CC(=O)[C@H](C)/C=C(\C)[C@@H](O)[C@@H](OC)C(=O)[C@H](C)C[C@H](C)/C=C/C=C/C=C/1C [Rapamycin, (3S,6R,7E,9R,10R,12R,14S,15E,17E,19E,21S,23S,26R,27R,34aS)-9,10,12,13,14,21,22,23,24,25,26,27,32,33,34,34a-hexadecahydro-9,27-dihydroxy-3-[(1R)-2-[(1S,3R,4R)-4-hydroxy-3-methoxycyclohexyl]-1-methylethyl]-10,21-dimethoxy-6,8,12,14,20,26-hexamethyl-23,27-epoxy-3H-pyrido[2,1-c][1,4]-oxaazacyclohentriacontine-1,5,11,28,29(4H,6H,31H)-pentone, reference compound]",,,
